Laboratory results reported in ChEMBL document CHEMBL1201862, “PubChem BioAssay data set” (2004).
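Results reflect a 48-hour exposure of cells in 96-well plates to compound at five concentrations. The concentration for 50% growth inhibition is given as GI50.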 Active and inactive are the calls of the source. Rule as the data show it: active = GI50 up to about 1.1 µM and inactive = higher.

Tests used:
Experiment in all cases: NCI anticancer screen, dose series, 48 h
KM12 = test system: KM12
MCF7 = test system: MCF7
HCC 2998 = test system: HCC 2998
SK-MEL-2 = test system: SK-MEL-2
TK-10 = test system: TK-10
MDA-N = test system: MDA-N
DU-145 = test system: DU-145
RXF 393 = test system: RXF 393
RPMI-8226 = test system: RPMI-8226
MDA-MB-435 = test system: MDA-MB-435
U-251 = test system: U-251
CAKI-1 = test system: CAKI-1
ACHN = test system: ACHN
LXFL 529 = test system: LXFL 529
NCI-H522 = test system: NCI-H522
IGROV-1 = test system: IGROV-1
Hs-578T = test system: Hs-578T
COLO 205 = test system: COLO 205
HOP-18 = test system: HOP-18
UACC-62 = test system: UACC-62
Malme-3M = test system: Malme-3M
EKVX = test system: EKVX
K562 = test system: K562
KM-20L2 = test system: KM-20L2
786-0 = test system: 786-0
SF-295 = test system: SF-295
SK-MEL-28 = test system: SK-MEL-28
A498 = test system: A498
HOP-62 = test system: HOP-62
SF-268 = test system: SF-268
NCI-H23 = test system: NCI-H23
SK-OV-3 = test system: SK-OV-3
T47D = test system: T47D
NCI-H226 = test system: NCI-H226
CCRF-CEM = test system: CCRF-CEM
OVCAR-3 = test system: OVCAR-3
SW-620 = test system: SW-620
SN12C = test system: SN12C
XF498 = test system: XF498
M19-MEL = test system: M19-MEL
SNB-78 = test system: SNB-78
HCT-116 = test system: HCT-116
HL-60 = test system: HL-60
RXF 631 = test system: RXF 631
HT-29 = test system: HT-29
HOP-92 = test system: HOP-92
DMS-273 = test system: DMS-273
MOLT-4 = test system: MOLT-4
NCI/ADR-RES = test system: NCI/ADR-RES
OVCAR-5 = test system: OVCAR-5
MDA-MB-231 = test system: MDA-MB-231
M14 = test system: M14
UACC-257 = test system: UACC-257
DMS-114 = test system: DMS-114
SK-MEL-5 = test system: SK-MEL-5
UO-31 = test system: UO-31
A549 = test system: A549
LOX IMVI = test system: LOX IMVI
PC-3 = test system: PC-3
SR = test system: SR
HCT-15 = test system: HCT-15
SNB-75 = test system: SNB-75
DLD-1 = test system: DLD-1
OVCAR-8 = test system: OVCAR-8
OVCAR-4 = test system: OVCAR-4
SNB-19 = test system: SNB-19
NCI-H460 = test system: NCI-H460
BT-549 = test system: BT-549
SF-539 = test system: SF-539

COc1cc2c(c(OC)c1OC)-c1ccc(OC)c(=O)cc1[C@@H](NC(=O)c1ccccc1)CC2
GI50 (KM12): 10.6 nM (active)
GI50 (MCF7): < 14.6 nM (active)
GI50 (HCC 2998): 16.2 nM (active)
GI50 (SK-MEL-2): 12 nM (active)
GI50 (TK-10): 170 nM (active)
GI50 (MDA-N): < 10 nM (active)
GI50 (DU-145): 19.9 nM (active)
GI50 (RXF 393): 23.4 nM (active)
GI50 (RPMI-8226): 60.8 nM (active)
GI50 (MDA-MB-435): < 10 nM (active)
GI50 (U-251): 14.7 nM (active)
GI50 (CAKI-1): 20.6 nM (active)
GI50 (ACHN): 30.5 nM (active)
GI50 (LXFL 529): < 10 nM (active)
GI50 (NCI-H522): 11.4 nM (active)
GI50 (IGROV-1): 14.6 nM (active)
GI50 (Hs-578T): < 12.6 nM (active)
GI50 (COLO 205): < 10 nM (active)
GI50 (HOP-18): 97500 nM (inactive)
GI50 (UACC-62): < 11.3 nM (active)
GI50 (Malme-3M): 16 nM (active)
GI50 (EKVX): 5150 nM (inactive)
GI50 (K562): < 11.4 nM (active)
GI50 (KM-20L2): < 10 nM (active)
GI50 (786-0): 18.4 nM (active)
GI50 (SF-295): 13.6 nM (active)
GI50 (SK-MEL-28): 1860 nM (inactive)
GI50 (A498): < 12.1 nM (active)
GI50 (HOP-62): 37.9 nM (active)
GI50 (SF-268): 15.4 nM (active)
GI50 (NCI-H23): 12.8 nM (active)
GI50 (SK-OV-3): 64.6 nM (active)
GI50 (T47D): 58300 nM (inactive)
GI50 (NCI-H226): 67 nM (active)
GI50 (CCRF-CEM): < 10 nM (active)
GI50 (OVCAR-3): < 10.3 nM (active)
GI50 (SW-620): 11.9 nM (active)
GI50 (SN12C): 14.6 nM (active)
GI50 (XF498): < 10 nM (active)
GI50 (M19-MEL): < 10 nM (active)
GI50 (SNB-78): < 10 nM (active)
GI50 (HCT-116): 12.6 nM (active)
GI50 (HL-60): < 10 nM (active)
GI50 (RXF 631): 11.5 nM (active)
GI50 (HT-29): 11.4 nM (active)
GI50 (HOP-92): 17.3 nM (active)
GI50 (DMS-273): < 10 nM (active)
GI50 (MOLT-4): 56.2 nM (active)
GI50 (NCI/ADR-RES): 168 nM (active)
GI50 (OVCAR-5): 1070 nM (active)
GI50 (MDA-MB-231): 15.1 nM (active)
GI50 (M14): 11.8 nM (active)
GI50 (UACC-257): 148 nM (active)
GI50 (DMS-114): < 10 nM (active)
GI50 (SK-MEL-5): 10.7 nM (active)
GI50 (UO-31): 449 nM (active)
GI50 (A549): 18 nM (active)
GI50 (LOX IMVI): 14.2 nM (active)
GI50 (PC-3): 16.9 nM (active)
GI50 (SR): 155 nM (active)
GI50 (HCT-15): 21 nM
GI50 (SNB-75): < 32.7 nM (active)
GI50 (DLD-1): < 12.4 nM (active)

CCN(CC)CCCNc1ccc2nc(C)n3c4ccc(O)cc4c(=O)c1c23
GI50 (OVCAR-8): 1950 nM (inactive)
GI50 (KM12): 3610 nM (inactive)
GI50 (MCF7): 863 nM (active)
GI50 (HCC 2998): 7430 nM (inactive)
GI50 (SK-MEL-2): 6350 nM (inactive)
GI50 (TK-10): 7160 nM (inactive)
GI50 (MDA-N): 7530 nM (inactive)
GI50 (DU-145): 5460 nM (inactive)
GI50 (RXF 393): 3890 nM (inactive)
GI50 (RPMI-8226): 1900 nM (inactive)
GI50 (MDA-MB-435): 9890 nM (inactive)
GI50 (U-251): 5360 nM (inactive)
GI50 (CAKI-1): 4780 nM (inactive)
GI50 (ACHN): 3010 nM (inactive)
GI50 (LXFL 529): 3220 nM (inactive)
GI50 (NCI-H522): 485 nM (active)
GI50 (IGROV-1): 1640 nM (inactive)
GI50 (Hs-578T): 7080 nM (inactive)
GI50 (COLO 205): 5180 nM (inactive)
GI50 (HOP-18): 12400 nM (inactive)
GI50 (UACC-62): 10000 nM (inactive)
GI50 (Malme-3M): 10700 nM (inactive)
GI50 (EKVX): 11400 nM (inactive)
GI50 (K562): 2970 nM (inactive)
GI50 (KM-20L2): 1650 nM (inactive)
GI50 (786-0): 1810 nM (inactive)
GI50 (SF-295): 5160 nM (inactive)
GI50 (OVCAR-4): 4650 nM (inactive)
GI50 (SK-MEL-28): 12700 nM (inactive)
GI50 (A498): 11900 nM (inactive)
GI50 (HOP-62): 3210 nM (inactive)
GI50 (SNB-19): 6700 nM (inactive)
GI50 (NCI-H460): 838 nM (active)
GI50 (SF-268): 1960 nM (inactive)
GI50 (NCI-H23): 1340 nM (inactive)
GI50 (SK-OV-3): 6640 nM (inactive)
GI50 (T47D): 15400 nM (inactive)
GI50 (NCI-H226): 6460 nM (inactive)
GI50 (CCRF-CEM): 1790 nM (inactive)
GI50 (OVCAR-3): 8090 nM (inactive)
GI50 (SW-620): 957 nM (active)
GI50 (SN12C): 5150 nM (inactive)
GI50 (XF498): 6810 nM (inactive)
GI50 (M19-MEL): 10600 nM (inactive)
GI50 (SNB-78): 5350 nM (inactive)
GI50 (HCT-116): 713 nM (active)
GI50 (HL-60): 1610 nM (inactive)
GI50 (RXF 631): 3790 nM (inactive)
GI50 (HT-29): 1170 nM (inactive)
GI50 (HOP-92): 2890 nM (inactive)
GI50 (DMS-273): 619 nM (active)
GI50 (MOLT-4): 301 nM (active)
GI50 (NCI/ADR-RES): 12600 nM (inactive)
GI50 (OVCAR-5): 6220 nM (inactive)
GI50 (M14): 8610 nM (inactive)
GI50 (UACC-257): 15500 nM (inactive)
GI50 (DMS-114): 5410 nM (inactive)
GI50 (SK-MEL-5): 10300 nM (inactive)
GI50 (UO-31): 5890 nM (inactive)
GI50 (A549): 2110 nM (inactive)
GI50 (BT-549): 12100 nM (inactive)
GI50 (LOX IMVI): 1140 nM (inactive)
GI50 (SF-539): 9380 nM (inactive)
GI50 (PC-3): 1470 nM (inactive)
GI50 (HCT-15): 3620 nM
GI50 (SNB-75): 881 nM (active)
GI50 (DLD-1): 1200 nM (inactive)
